In patent publication US12599640B2, “Lactobacillus plantarum ZUST49 and bacterial agent, and use thereof” (ZHEJIANG UNIVERSITY OF SCIENCE AND TECHNOLOGY, priority 2023, dated 2026):

Assay: Production of sulforaphane by feeding mice with enteric capsule (plasma sulforaphane, cyclocondensation method)
Format: in vivo
Settings: mouse plasma; intragastric glucoraphanin aqueous solution, 150 μmol of glucoraphanin/kg; blood taken at 0 h and 12 h
Description: C57BL/6 male mice of 6 to 8 weeks were pre-reared for 1 week and randomly divided into an enteric capsule group, a glucoraphanin group, and a blank group. Mice in the enteric capsule group were intragastrically administered daily with an enteric capsule aqueous solution containing Lactobacillus plantarum ZUST49 and glucoraphanin (150 μmol of glucoraphanin/kg and ZUST49 content of 8.7×10^5 CFU/g, and prepared according to the method of example 3). The mice in the glucoraphanin group were intragastrically administrated with a glucoraphanin aqueous solution (150 μmol of glucoraphanin/kg). The mice were fed with food and water ad libitum. Food intake and weight were recorded daily. The mice were deeply anesthetized with an intraperitoneal injection of ketamine/xylazine (87 mg/mL and 13 mg/mL respectively, and 0.1 mL/100 g mice) at 0 h and 12 h (6 mice/group each time period), and put to death by cervical dislocation after blood collection by cardiac puncture. The sulforaphane content in plasma of the mice was determined by a cyclocondensation method.

For C[S+]([O-])CCCC/C(=N\OS(=O)(=O)O)S[C@@H]1O[C@H](CO)[C@@H](O)[C@H](O)[C@H]1O (stereo partly shown) [glucoraphanin], the “sulforaphane content in the plasma of the mice” value was 0.017 ± 0.030 µM.
